Publication PMC6399351, “Cationic Intrinsically Disordered Antimicrobial Peptides (CIDAMPs) Represent a New Paradigm of Innate Defense with a Potential for Novel Anti-Infectives” (Scientific Reports, 2019)
In brackets after ≈: the same amount, converted by molar mass. Read-outs that look alike come from different tables or passages of the source. Square brackets hold non-standard residues; d marks the D form. Ends that are not written are not given here. Peptide text beside a SMILES is read from it. * marks the point of attachment. Palmitoyl = CCCCCCCCCCCCCCCC(=O)*; Dab = NCC[C@H](N)C(=O)O; Dap = NC[C@H](N)C(=O)O

Experiments:
[1] = system: Klebsiella pneumonia ATCC 700603; conditions: MDR strain; CLSI, Mueller–Hinton broth, 5 × 10^5 CFU/mL, 18 h 37 °C, by CO-ADD
[2] = system: Pseudomonas aeruginosa ATCC 27853; experiment: CO-ADD MIC, broth microdilution (CLSI); format: cell-based; conditions: Mueller–Hinton broth, 5 × 10^5 CFU/mL, 18 h 37 °C, by CO-ADD
From the text: (§1) They were defined as the lowest peptide
(§2) Further details of the screening

[3] = system: Acinetobacter baumannii ATCC 19606; experiment: CO-ADD MIC, broth microdilution (CLSI); format: cell-based; conditions: Mueller–Hinton broth, 5 × 10^5 CFU/mL, 18 h 37 °C, by CO-ADD
From the text: as §1, §2

[4] = system: Cryptococcus neoformans ATCC 208821; experiment: CO-ADD MIC, antifungal assay (CLSI); format: cell-based; conditions: Yeast Nitrogen Base broth, 24 h 35 °C, by CO-ADD
Method: (§3) Fungi strains were cultured for 3 days on Yeast Extract-Peptone Dextrose (YPD) agar at 30 °C. A yeast suspension of 1 × 10^6 to 5 × 10^6 cells/mL (as determined by OD530) was prepared from five colonies. These stock suspensions were diluted with Yeast Nitrogen Base (YNB) broth to a final concentration of 2.5 × 10^3 CFU/mL. […] Plates were covered and incubated at 35 °C for 24 h without shaking.

[5] = system: Candida albicans ATCC 90028; experiment: CO-ADD MIC, antifungal assay (CLSI); format: cell-based; conditions: Yeast Nitrogen Base broth, 24 h 35 °C, by CO-ADD
Method: as §3

[6] = system: Staphylococcus aureus ATCC 43300; conditions: MRSA; CLSI, Mueller–Hinton broth, 5 × 10^5 CFU/mL, 18 h 37 °C, by CO-ADD
S. aureus ATCC 6538 = conditions: CFU assay
E. coli ATCC 25922 = experiment: CO-ADD MIC, broth microdilution (CLSI); format: cell-based, Escherichia coli; conditions: Mueller–Hinton broth, 5 × 10^5 CFU/mL, 18 h 37 °C, by CO-ADD
From the text: as §1, §2

P. aeruginosa ATCC 10145 = conditions: CFU assay, 10 mM NaP, pH 5.5, 0.25% glucose
[7] = 10 mM NaP, pH 5.5, 0.25% glucose

| Compound | Minimal inhibitory concentration (MIC) [1] [µg/mL] | Minimal inhibitory concentration (MIC) [2] [µg/mL] | Minimal inhibitory concentration (MIC) [3] [µg/mL] | Minimal inhibitory concentration (MIC) [4] [µg/mL] | Minimal inhibitory concentration (MIC) [5] [µg/mL] | Minimal inhibitory concentration (MIC) [6] [µg/mL] | LD90 (S. aureus ATCC 6538; [7]) [µg/mL] | LD90 (S. aureus ATCC 6538; value in molar units) [nM] | Minimal inhibitory concentration (MIC) (E. coli ATCC 25922) [µg/mL] | LD90 (P. aeruginosa ATCC 10145) [µg/mL] |
| --- | --- | --- | --- | --- | --- | --- | --- | --- | --- | --- |
| N=C(N)NCCC[C@H](NC(=O)[C@H](CCCNC(=N)N)NC(=O)[C@H](CS)NC(=O)[C@H](CCCNC(=N)N)NC(=O)[C@H](Cc1c[nH]cn1)NC(=O)[C@H](CO)NC(=O)[C@H](CCCNC(=N)N)NC(=O)[C@H](CS)NC(=O)[C@H](CS)NC(=O)[C@H](CCCNC(=N)N)NC(=O)[C@H](Cc1c[nH]cn1)NC(=O)[C@H](Cc1c[nH]cn1)NC(=O)[C@@H](N)CO)C(=O)O [LCE-3B56-68] (H-SHHRCCRSHRCRR-OH) | >32 | >32 | >32 | 8 (≈ 4.72 µM) | >32 | 32 (≈ 18.9 µM) | 0.075 | 44 | >32 |  |
| CCCCCCCCCCCCCCCC(=O)NCC(=O)N[C@@H](CCN)C(=O)NCC(=O)N[C@@H](CCN)C(=O)O [Pal-G-Dab4] (Palmitoyl-G[Dab]G[Dab]-OH) | >32 | >32 | 32 (≈ 56.1 µM) | 16 (≈ 28 µM) | >32 | 32 (≈ 56.1 µM) | 4.7 |  | >32 |  |
| CCCCCCCCCCCCCCCC(=O)NCC(=O)N[C@@H](CN)C(=O)NCC(=O)N[C@@H](CN)C(=O)O [Pal-G-Dap4] (Palmitoyl-G[Dap]G[Dap]-OH) | >32 | >32 | >32 | 1 (≈ 1.84 µM) | 8 (≈ 14.7 µM) | 8 (≈ 14.7 µM) | 2.35 |  | >32 |  |
| CCCCCCCCCCCCCCCC(=O)N[C@@H](CCCNC(=N)N)C(=O)NCC(=O)N[C@@H](CO)C(=O)N[C@@H](CCCNC(=N)N)C(=O)N[C@@H](CO)C(=O)NCC(=O)N[C@@H](CCC(N)=O)C(=O)N[C@@H](CO)C(=O)N[C@@H](CO)C(=O)N[C@@H](CCCNC(=N)N)C(=O)NCC(=O)N[C@@H](CCC(=O)O)C(=O)N[C@@H](CCCNC(=N)N)C(=O)N[C@@H](CCCNC(=N)N)C(=O)O [Pal-HR-1-11-2H2R-14] (Palmitoyl-RGSRSGQSSRGERR-OH) | >32 | >32 | 4 (≈ 2.2 µM) | 8 (≈ 4.41 µM) | >32 | 8 (≈ 4.41 µM) |  |  | 8 (≈ 4.41 µM) |  |
| CCCCCCCCCCCCCCCC(=O)N[C@@H](CO)C(=O)N[C@@H](Cc1c[nH]cn1)C(=O)N[C@@H](Cc1c[nH]cn1)C(=O)N[C@@H](CCCNC(=N)N)C(=O)N[C@@H](Cc1c[nH]cn1)C(=O)N[C@@H](Cc1ccccc1)C(=O)N[C@@H](CCCNC(=N)N)C(=O)N[C@@H](CO)C(=O)N[C@@H](Cc1c[nH]cn1)C(=O)N[C@@H](CCC(N)=O)C(=O)N[C@@H](CS)C(=O)N[C@@H](CCCNC(=N)N)C(=O)N[C@@H](CCCNC(=N)N)C(=O)O [Pal-LCE-3C55-67] (Palmitoyl-SHHRHFRSHQCRR-OH) | >32 | >32 | >32 | 1 (≈ 0.504 µM) | 16 (≈ 8.07 µM) | 32 (≈ 16.1 µM) |  |  | >32 |  |
| HAHSGHGQSTQRGSRTAGR [FLG-22082-2100] | >32 | >32 | >32 | >32 | >32 | >32 |  |  | >32 | 0.038 |
